Laboratory results published in US12163169B2, “Inducible chimeric cytokine receptors” (Allogene Therapeutics, Inc., priority 2018, dated 2024).
Entries after “also recorded” stand apart in the source; their conditions may differ.

Legend:
[1] = test system: CAR T cells; test: Target-independent AP1903-driven CAR T cell expansion, 2-week culture (Example 11); assay type: cell-based, human; conditions: FKBP switch CAR T cells, IL7R(316-459)/IL12Rb2(775-825) cytotails; reference IL-7 and IL-12p70 10 ng/mL each; 2 weeks
Method: Control CAR T cells or FKBP switch CAR T cells bearing IL7R(316-459)/IL12Rb2(775-825) cytotails were cultured with the indicated concentrations of AP1903, and in the absence of exogenous cytokines (unless specified in the case of positive controls) or target cells for 2 weeks. As a positive control, CAR T cells were alternatively supplemented with exogenous recombinant IL-7 (10 ng/mL; Miltenyi) and IL-12p70 (10 ng/mL; Biolegend) to mimic the dual IL-7R/IL12Rb2 outputs transmitted by FKBP switch activation. At the end of the 2-week culture, the number and quality of surviving CAR T cells were determined. Briefly, duplicate samples from each culture condition cells were harvested and stained using the Zombie NIR Fixable Viability Kit (Biolegend). Samples were washed with PBS, Fc blocked, then stained with the following antibody cocktail diluted in PBS+1% BSA: BUV395-conjugated anti-human CD3, BV510-conjugated anti-human CD8, BV605-conjugated human CD4 and FITC-conjugated v5 tag (for CAR detection), PE/Cy7-conjugated anti-human CD62L (Biolegend) and BV785-conjugated anti-human CD45RO (Biolegend). Finally, samples were washed in PBS and cell pellets were resuspended in 130 uL PBS+1% BSA containing 123count eBeads counting beads (Thermo Fisher) (10 uL counting beads in 120 uL PBS+1% BSA) prior to FACS analysis.

[2] = molecular target: FKBP12 containing the F36V mutation (Homo sapiens, UniProt P62942, F37V); conditions: literature (Jemal 2008; Scher and Kelly 1993); cited from earlier work
[3] = molecular target: T1, BCMA ectodomain cytokine receptor (Homo sapiens, UniProt Q02223); test: HEK293T Stat reporter assay of BCMA ectodomain cytokine receptor with soluble APRIL trimers (Example 14); assay type: cell-based; conditions: 5 hours post-treatment; FIGS. 37C-37D
T1 construct: such as BCMA(1-54), TACI(1-165) and BAFFR(1-78); expressed in transfected cells; host or cells: HEK293T
T1 sequence (Q02223 1-54): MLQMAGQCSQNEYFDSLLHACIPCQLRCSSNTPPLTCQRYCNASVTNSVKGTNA
Text: To test if the panel of ligand inducers and ectodomains can be further extended beyond the AP1903-FKBP(F36V) pairing, we tested signaling in response to other multimeric ligand inducers. As the Tumor Necrosis Family (TNF) superfamily of ligands are trimers, they engage their respective receptors in a multimeric fashion. Therefore, we fused ectodomains derived from the TNFR2 superfamily receptors, such as BCMA(1-54), TACI(1-165) and BAFFR(1-78), to the transmembrane and signaling domains of our chimeric cytokine receptors, and tested signaling in response to soluble trimeric ligand. Briefly, 20,000 HEK293T cells were plated into each well of a poly-L-lysine-coated 96-well flat-bottom plate and allowed to adhere overnight. The chimeric cytokine receptor (2.5 ng), a Stat response element that drives Firefly Luciferase (100 ng; Promega) and Renilla Luciferase control reporter vector (1 ng; Promega) were mixed in a final volume of 5 uL in Opti-MEM (Gibco) (“DNA mix”). 0.3 uL Lipofectamine 2000 (Invitrogen) in 5 uL Opti-MEM was incubated at room temperature for 5 minutes and then added to the DNA mix. […] 24 hours after transfection, cells were either left untreated, or treated with soluble BAFF or APRIL trimers diluted in serum-free media, and Stat reporter activity was determined 5 hours post-treatment using the Dual-Glo Luciferase Assay System (Promega). […]

Chain of FKBP12 containing the F36V mutation (P62942 2-108 F37V): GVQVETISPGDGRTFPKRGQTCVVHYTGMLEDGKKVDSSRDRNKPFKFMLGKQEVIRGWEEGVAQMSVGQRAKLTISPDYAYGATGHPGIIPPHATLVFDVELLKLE

Molecule: CC[C@H](C(=O)N1CCCC[C@H]1C(=O)O[C@H](CCc1ccc(OC)c(OC)c1)c1cccc(OCC(=O)NCCNC(=O)COc2cccc([C@@H](CCc3ccc(OC)c(OC)c3)OC(=O)[C@@H]3CCCCN3C(=O)[C@@H](CC)c3cc(OC)c(OC)c(OC)c3)c2)c1)c1cc(OC)c(OC)c(OC)c1 [AP1903]
- AP1903 concentration sufficient to reach the level of expansion achieved by exogenous cytokine supplementation [1]: ≤ 1 ng/mL
- binding affinity to FKBP12 containing the F36V mutation [2]: high affinity; also recorded: much higher affinity than wild-type FKBP12

Molecule: APRIL: soluble APRIL trimers, TNF superfamily ligand
- downstream Stat activation [3]: induced downstream Stat activation
